{"source": "paper PMC10028790", "about": "(bioRxiv, 2023)", "key": {"CB1R": {"test_system": "CB1R", "settings": "cited from earlier work"}, "GRABeCB2.0 [1]": {"biological_target": "T1, GRABeCB2.0 (Homo sapiens, UniProt P21554)", "test": "cell-based", "settings": "for Effect on GRABeCB2.0 fluorescent signal: products of 2-AG hydrolysis"}, "GRABeCB2.0 [2]": {"biological_target": "T1, GRABeCB2.0", "test": "cell-based", "type": "cell-based"}, "[3]": {"settings": "adult mice, intraperitoneal 5 mg/kg; ref 44;45; cited from earlier work"}, "[4]": {"settings": "read-out: EC50 for activation of CB1Rs"}, "[5]": {"settings": "applied at a concentration that approaches the EC50"}, "[6]": {"settings": "concentration-dependent responses"}, "[7]": {"settings": "read-out: EC50, potency at CB1R"}}, "note": "pEC50: −log10 of the molar value. Several values for one entry are separate records, joined by “and”; a condition that tells them apart may be missing. Equal entries are not always repeated. Entries after “also recorded” stand apart in the source; their conditions may differ. Where two headings read alike, the source gives them in different places.", "data": [{"smiles": "CCCCC/C=C\\C/C=C\\C/C=C\\C/C=C\\CCCC(=O)OCC(O)CO", "note": "(stereo not drawn) [1-AG, 1-arachidonoylglycerol]", "values": [{"measurement": "pEC50", "setting": "CB1R; read-out: EC50 at CB1R, ref 29;40;41", "result": "5.72 to 6.00"}, {"measurement": "Antagonism of agonist response by SR1 100 nM", "setting": "GRABeCB2.0 [1]", "result": "strongly antagonized"}, {"measurement": "Antagonism of agonist response by SR1 300 nM", "setting": "GRABeCB2.0 [1]", "result": "strongly antagonized"}, {"measurement": "pEC50", "setting": "GRABeCB2.0 [1]", "result": 5.74}, {"measurement": "Effect of SR1 pre-treatment on agonist-stimulated GRABeCB2.0 activation", "setting": "GRABeCB2.0 [1]", "result": "reduced"}, {"measurement": "Initial inflection time point", "setting": "GRABeCB2.0 [1]", "result": "≤ 1", "unit": "min"}, {"measurement": "Kinetics of fluorescent signal increase", "setting": "GRABeCB2.0 [1]", "result": "rapid increases in fluorescent signal that were followed by slow decays"}]}, {"smiles": "CCCCC/C=C\\C/C=C\\C/C=C\\C/C=C\\CCCC(=O)OC(CO)CO", "note": "[2-AG, 2-arachidonoylglycerol]", "values": [{"measurement": "Antagonism response: t (decay following SR1 treatment)", "setting": "GRABeCB2.0 [2]", "result": 42.7, "unit": "s"}, {"measurement": "Decay of agonist response antagonized by SR1", "setting": "GRABeCB2.0 [2]", "result": 43, "unit": "s"}, {"measurement": "Maximal response: peak", "setting": "GRABeCB2.0 [2]; 2-AG 1 μM, AEA 10 μM, CP 1 μM", "result": 2.5, "unit": "DF/F0"}, {"measurement": "Overall response (area under the curve)", "setting": "GRABeCB2.0 [2]; 2-AG 1 μM, AEA 10 μM, CP 1 μM", "result": 649}, {"measurement": "Emax", "setting": "GRABeCB2.0 [2]; HEK293, read-out: Peak response greater than the CP maximal response", "result": "47 to 58", "unit": "%"}, {"measurement": "Initial response: slope", "setting": "GRABeCB2.0 [2]; slope of fluorescent signal increase within first 20 sec after start of agonist, 2-AG 1 μM, AEA 10 μM, CP 1 μM", "result": "6.6 × 10^−2 DF/F0/sec"}, {"measurement": "pEC50", "setting": "CB1R; read-out: EC50, reported potency at CB1R", "result": "[…]"}, {"measurement": "pEC50", "setting": "CB1R; [4]", "result": "[…]"}, {"measurement": "Antagonism of agonist response by SR1 100 nM", "setting": "GRABeCB2.0 [1]", "result": "partial antagonized"}, {"measurement": "Effect of SR1 pre-treatment on agonist-stimulated GRABeCB2.0 activation", "setting": "GRABeCB2.0 [1]", "result": "significantly reduced"}, {"measurement": "GRABeCB2.0 fluorescent signal at 0 sec over basal", "setting": "GRABeCB2.0 [1]; 2-AG 10 nM", "result": "0.19 ΔF/F0"}, {"measurement": "Initial inflection point", "setting": "GRABeCB2.0 [1]; 2-AG 10 nM", "result": 0.66, "unit": "min"}, {"measurement": "GRABeCB2.0 fluorescent signal at 0 sec over basal", "setting": "GRABeCB2.0 [1]; 2-AG 100 nM", "result": "0.96 ΔF/F0"}, {"measurement": "Initial inflection point", "setting": "GRABeCB2.0 [1]; 2-AG 100 nM", "result": 0.33, "unit": "min"}, {"measurement": "Inflection point", "setting": "GRABeCB2.0 [1]; 2-AG 3 μM (strongest response)", "result": "≈ 0.66 min"}, {"measurement": "Kinetics of fluorescent signal increase", "setting": "GRABeCB2.0 [1]; [5]", "result": "rapid increases in fluorescent signal that were followed by slow decays"}]}, {"smiles": "CCCCC/C=C\\C/C=C\\CCCCCCCC(=O)OC(CO)CO", "note": "[2-LG, 2-linoleoylglycerol]", "values": [{"measurement": "pEC50", "setting": "CB1R; read-out: EC50, partial activation of CB1R, ref 11;12", "result": 4.78}, {"measurement": "pEC50", "setting": "CB1R; read-out: EC50 to activate CB1R, discussion, no reference given", "result": "~4.60"}, {"measurement": "Antagonism of agonist response by SR1 100 nM", "setting": "GRABeCB2.0 [1]", "result": "partial antagonized"}, {"measurement": "pEC50", "setting": "GRABeCB2.0 [1]", "result": 5.82}, {"measurement": "Effect of SR1 pre-treatment on agonist-stimulated GRABeCB2.0 activation", "setting": "GRABeCB2.0 [1]", "result": "reduced"}, {"measurement": "Kinetics of fluorescent signal increase", "setting": "GRABeCB2.0 [1]; [5]", "result": "rapid increases in fluorescent signal that were followed by slow decays"}, {"measurement": "Initial inflection time point", "setting": "GRABeCB2.0 [1]; [6]", "result": "≤ 1", "unit": "min"}]}, {"smiles": "CCCCCCCC/C=C\\CCCCCCCC(=O)OC(CO)CO", "note": "[2-OG, 2-oleoylglycerol]", "values": [{"measurement": "Antagonism of agonist response by SR1 100 nM", "setting": "GRABeCB2.0 [1]", "result": "strongly antagonized"}, {"measurement": "Antagonism of agonist response by SR1 300 nM", "setting": "GRABeCB2.0 [1]", "result": "strongly antagonized"}, {"measurement": "pEC50", "setting": "GRABeCB2.0 [1]", "result": 6.00}, {"measurement": "Effect of SR1 pre-treatment on agonist-stimulated GRABeCB2.0 activation", "setting": "GRABeCB2.0 [1]", "result": "reduced"}, {"measurement": "Kinetics of fluorescent signal increase", "setting": "GRABeCB2.0 [1]; [5]", "result": "rapid increases in fluorescent signal that were followed by slow decays"}, {"measurement": "Initial inflection time point", "setting": "GRABeCB2.0 [1]; [6]", "result": "≤ 1", "unit": "min"}]}, {"smiles": "CCCCC/C=C\\C/C=C\\C/C=C\\C/C=C\\CCCC(=O)NCCO", "note": "[AEA, arachidonoyl ethanolamine]", "values": [{"measurement": "pEC50", "setting": "CB1R; [7]", "result": "6.56 to 7.16"}, {"measurement": "pEC50", "setting": "CB1R; [4]", "result": "7.00 to 8.00"}]}, {"smiles": "C=C(C)[C@@H]1CCC(C)=C[C@H]1c1c(O)cc(CCCCC)cc1O", "note": "[CBD, Cannabidiol]", "values": [{"measurement": "Effect on basal GRABeCB2.0 fluorescent signal", "setting": "GRABeCB2.0 [1]; CBD 0.1 nM to 3 μM (legend: 100 pM-10 μM)", "result": "did not affect; also recorded: does not modulate; also recorded: did not significantly modulate"}, {"measurement": "Reduction of 2-AG-induced increase in GRABeCB2.0 fluorescent signal", "setting": "GRABeCB2.0 [1]; at 1 μM", "result": 26, "unit": "%"}]}, {"smiles": "CCCCCCC(C)(C)c1ccc([C@@H]2C[C@H](O)CC[C@H]2CCCO)c(O)c1", "note": "[CP]", "values": [{"measurement": "Antagonism response: t (decay following SR1 treatment)", "setting": "GRABeCB2.0 [2]", "result": 24.3, "unit": "s"}, {"measurement": "Decay of agonist response antagonized by SR1", "setting": "GRABeCB2.0 [2]", "result": 24, "unit": "s"}, {"measurement": "Initial response: slope", "setting": "GRABeCB2.0 [2]", "result": "4.5 × 10^−2 DF/F0/sec"}, {"measurement": "Maximal response: peak", "setting": "GRABeCB2.0 [2]", "result": 1.7, "unit": "DF/F0"}, {"measurement": "pEC50", "setting": "CB1R; [7]", "result": "[…]"}, {"measurement": "Antagonism of agonist response by SR1 100 nM", "setting": "GRABeCB2.0 [1]", "result": "partial antagonized"}, {"measurement": "Antagonism of agonist response by SR1 300 nM", "setting": "GRABeCB2.0 [1]", "result": "more than 80%"}, {"measurement": "Effect of SR1 pre-treatment on agonist-stimulated GRABeCB2.0 activation", "setting": "GRABeCB2.0 [1]", "result": "significantly reduced"}, {"measurement": "Initial inflection time point", "setting": "GRABeCB2.0 [1]", "result": "≤ 1.33", "unit": "min"}, {"measurement": "Kinetics of fluorescent signal increase", "setting": "GRABeCB2.0 [1]", "result": "progressive increases in fluorescent signal that did not reach peak response within 5 min"}, {"measurement": "Maximal GRABeCB2.0 response as percent of the 2-AG response", "setting": "GRABeCB2.0 [1]", "result": 71, "unit": "%"}]}, {"smiles": "CCCCC/C=C\\C/C=C\\C/C=C\\C/C=C\\CCCC(=O)O", "note": "[arachidonic acid]", "values": [{"measurement": "Effect on GRABeCB2.0 fluorescent signal", "setting": "GRABeCB2.0 [1]", "result": "did not influence"}]}, {"smiles": "OCC(O)CO", "note": "[glycerol]", "values": [{"measurement": "Effect on GRABeCB2.0 fluorescent signal", "setting": "GRABeCB2.0 [1]", "result": "did not influence"}]}, {"smiles": "CCCCCc1cc(O)c2c(c1)OC(C)(C)[C@@H]1CCC(C)=C[C@@H]21", "note": "[Δ^9-THC, Δ^9-tetrahydrocannabinol]", "values": [{"measurement": "THC in mouse brain", "setting": "[3]", "result": "≈ 10 ng/ml and 31.8 nM"}]}]}
